Experimental data from patent US6572839B2, “Sensitizer for tumor treatment” (Hitachi, Ltd., priority 2000, dated 2003).
Converted amounts (≈) assume the structure as drawn. Read-outs that look alike come from different tables or passages of the source.

Columns and labels:
[1] = Evaluation of the acoustic cavitation promoting effect (subharmonic signal upon ultrasound irradiation); details: 0.5 MHz and 1 MHz; for subharmonic generation: 0.1 mmol/L in PBS (pH 7.4), acoustic intensity 5 W/cm^2, 1 minute
Experimental: A 0.1 mmol/L solution of RB—Cn in PBS (pH 7.4, containing 1% DMF) was sealed in a polyethylene bag (30×25 mm, 0.03 mm thick) and irradiated with ultrasonic waves of 0.5 MHz and 1 MHZ simultaneously under conditions of an acoustic intensity of 5 or 10 W/cm^2 and an exposure time of 1 minute, using an experimental apparatus having the constitution shown in FIG. 4.
In FIG. 4, 10 indicates degassed water, 11—a water tank, 12—a polyethylene bag, 13—a sample solution, 14-1 and 14-2 each—a holdfast, 15—a hanger, 16—a hydrophone, 17—a supporter, 18—an ultrasound transducer, 19—a supporter, 20—a signal processor, 21—an amplifier, 22—a spectrum analyzer, 23—an amplifier, and 24—a wave generator.
The acoustic signals at the subharmonic (250 kHz) characteristic to acoustic cavitation were measured at one-second intervals using a focusing type hydrophone, the root mean square of the signal amplitudes during the irradiation period was calculated and this was used as an indication of acoustic cavitation.
For comparison, a 0.1 mmol/L solution of RB in PBS (pH 7.4) was also measured for subharmonic signals. […] For each of RB and the RB—Cn species containing 3, 6 or 18 carbon atoms in the alkyl group (RB—C3, RB—C6 and RB—C18), the relation between acoustic intensity and subharmonic intensity is shown in FIG. 6.
Using a 0.1 mmol/L solution of RB—COOH—Cn in PBS (pH 7.4), the acoustic cavitation promoting effect was evaluated in the same manner as in Test Example 5.
Using a 0.1 mmol/L solution of xanthene dye sensitizer—COOH—Cn in PBS (pH 7.4), the acoustic cavitation promoting effect was evaluated in the same manner as in Test Example 5.

[2] = tested on: murine experimental tumor Colone 26; test: Evaluation of the accumulation of RB—Cn in tumor tissues (agent extracted, fluorescence); format: in vivo; details: tumor bearing CDF1 mice, intravenous, 10 mg/kg, until 120 minutes after administration, FIG. 2
Experimental: (§1) Tumor bearing mice were intravenously administered with RB or RB—Cn and, after the lapse of a predetermined period, tumor tissues were excised. The fluorescence spectrum of the agent extracted from the tumor tissues was measured and the concentration of the agent was estimated from the fluorescence intensity to thereby evaluate the accumulability in tumor tissues. Mice subjected to the test were 5-week male CDF1 mice one to two weeks after subcutaneous implantation of small pieces (e.g. 1 mm^3 pieces) of the murine experimental tumor Colone 26. The dose of the agent was 10 mg/kg and methanol or chloroform was used for the extraction.

[3] = Solubility measurement of RB and lipophilic derivatives of RB in PBS and 1-octanol; format: physicochemical; details: for solubility: thermodynamic from solid
Experimental: The sonochemical sensitizers of the invention, namely RB—COOH—Cn species (n being the number of carbon atoms in the straight alkyl group) were examined for their solubility in an aqueous solution and in an organic solvent. The aqueous solution used was a phosphate buffer solution (hereinafter, PBS) with a pH of 7.4 and the organic solvent used was 1-octanol.
First, saturated solutions of each RB—COOH—Cn in PBS and in 1-octanol were prepared at 25° C. and each solution was measured for its ultraviolet-visible absorption spectrum. Based on the molar absorptivity determined beforehand by measuring the ultraviolet-visible absorption spectrum of a solution having a known concentration, the agent concentration in the saturated solution was estimated.
For comparison, the starting material RB and two kinds of RB derivative, for which an attempt was made to increase the lipophilicity by a method other than that of the invention, namely rose bengal alkyl esters (hereinafter, RB—Cn, n being the number of carbon atoms in the alkyl group) and rose bengal fatty acid esters (hereinafter, RB—Cn—COOH, n being the number of carbon atoms in the methylene chain), were also subjected to solubility measurement.
In the solubility measurement, the respective derivatives having an equal number of carbon atoms in the alkyl group (n=7) were used.

[4] = tested on: murine experimental tumor Colone 26; test: Evaluation of the accumulation of RB—COOH—Cn in tumor tissues (fluorescence intensity ratio); format: in vivo; details: tumor bearing CDF1 mice, intravenous, 10 mg/kg, until 120 minutes after administration, FIG. 3
Experimental: as §1
Tumor bearing mice were intravenously administered with RB or RB—COOH—Cn and, after the lapse of a predetermined period, tumor tissues were excised. The fluorescence intensity of the tumor tissues was measured and the accumulability in tumor tissues was evaluated based on the ratio of that intensity and the fluorescence intensity of an internal standard (fluorescence intensity ratio). The mice used in the test and the dose of the agent were the same as in Test Example 3. As an example of the results, the relation between the time from agent administration to mice to tumor tissue excision and the fluorescence intensity ratio is shown in FIG. 3 for each of RB and RB—COOH—Cn species containing 2, 3, 7 or 15 carbon atoms in the alkyl group (RB—COOH—C2, RB—COOH—C3, RB—COOH—C7 and RB—COOH—C15).

[5] = Preparation of RB solution and RB lipophilic derivative solutions for administration in vivo; format: physicochemical; details: target 10 mg/mL (RB—Cn 1 mg/mL), final pH about 7.4
Experimental: A solution each of RB (Formula 9), RB—Cn—COOH (Formula 11) and RB—COOH—Cn (Formula 12) with a concentration of 10 mg/mL and a solution of RB—Cn (Formula 10) with a concentration of 1 mg/mL were prepared.
RB: 50 mg of RB was dissolved in PBS (pH 7.4) and the whole volume was made 5 mL.
RB—Cn: 4 mg of RB—Cn was dissolved in 0.4 mL of DMSO. Then, 0.4 mL of ethanol, 0.3 mL of 0.1 N NaOH aqueous solution and 1.0 mL of PBS (pH 7.4) were added and, further, 0.1 N hydrochloric acid was added to adjust the pH to about 7.4 and the whole volume was made 4 mL by further adding PBS (pH 7.4). The DMSO accounted for 10% of the whole solution.
RB—C7—COOH: 30 mg of RB—C7—COOH was dissolved in 1.2 mL of 0.1 N NaOH aqueous solution, 0.1 N hydrochloric acid was added to adjust the pH to about 7.4 and the whole volume was made 3 mL by further adding PBS (pH 7.4).
RB—COOH—Cn: n=2 to 10:30 mg of each RB—COOH—Cn was dissolved in 1.2 mL of 0.1 N NaOH aqueous solution, 0.1 N hydrochloric acid was added to adjust the pH to about 7.4 and the whole volume was made 3 mL by further adding PBS (pH 7.4). […].
n=11 to 20:30 mg of each RB—COOH—Cn was dissolved in 0.6 mL of DMF. Then, 1.2 mL of 0.1 N NaOH aqueous solution was added, 0.1 N hydrochloric acid was added to adjust the pH to about 7.4 and the whole volume was made 3 mL by further adding PBS (pH 7.4).

[6] = Evaluation of the photosensitivity (photo-oxidation reaction of iodide); details: light of 365 nm, DMF solution, FIG. 9 / FIG. 10
Experimental: The photo-oxidation reaction of iodide as represented by Equation 4 was carried out in the presence of RB—Cn and the photosensitivity of the compound was evaluated.
A mixed solution composed of 2 mL of a 0.1 mol/L solution of potassium iodide in DMF and 1 mL of a 1 mmol/L solution of RB—Cn in DMF was placed in a glass dish (48 mm in diameter) and irradiated with light of 365 nm for a predetermined period. The absorbance, at 350 nm, of the sample was measured before and after exposure. 350 nm is the absorption maximum wavelength of I3^—. Based on the absorbance (A), the concentration of I3^— was calculated using Equation 5.
The procedure of Test Example 8 was followed in the presence of RB—COOH—Cn.

[7] = Evaluation for bubble stability; format: physicochemical; details: 0.1 mmol/L in PBS (pH 7.4), 4 mL shaken 5 minutes
Experimental: Using a 0.1 mmol/L solution of RB—COOH—C7 in PBS (pH 7.4), the stability of bubbles was measured. 4 mL of the solution of RB—COOH—C7 was placed in a test tube having a length of […] and shaken on a shaker for 5 minutes and then the time until the disappearance of the bubbles was measured. PBS was used as a control.

[8] = Evaluation for contrast-enhancing effect (ultrasound imaging); format: in vivo; details: dog, 5 mL of 0.1 mmol/L solution intravenously, 5 MHz linear probe, mode B
Experimental: Using an ultrasound diagnostic system equipped with a linear probe with a central frequency of 5 MHz, 5 mL of the solution of RB—COOH—C7 obtained in Test Example 10 was intravenously administered to a dog (weighing 12 kg, 2 years old) while ultrasonically scanning the hepatic region of the dog with mode B. Immediately thereafter, 5 mL of physiological saline was administered. After administration, the hepatic artery and aorta were imaged and the imaging lasted for about 30 seconds.

CCCCCCC(OC(=O)c1ccccc1-c1c2cc(I)c(=O)c(I)c-2oc2c(I)c(O)c(I)cc12)C(=O)O (stereo not drawn) [EB—COOH—C7, Erythrosine B-α-carboxyheptyl ester]
subharmonic generation [1]: observed

O=C([O-])c1c(Cl)c(Cl)c(Cl)c(Cl)c1-c1c2cc(Br)c(=O)c(Br)c-2oc2c(Br)c([O-])c(Br)cc12.[Na+].[Na+] [PB, phloxine B sodium salt]
subharmonic generation [1]: observed

O=C(O)CCCCCCCOC(=O)c1c(Cl)c(Cl)c(Cl)c(Cl)c1-c1c2cc(Br)c(=O)c(Br)c-2oc2c(Br)c(O)c(Br)cc12 [PB—COOH—C7, Phloxine B-α-carboxyheptyl ester]
subharmonic generation [1]: observed

O=C([O-])c1c(Cl)c(Cl)c(Cl)c(Cl)c1-c1c2cc(I)c(=O)c(I)c-2oc2c(I)c([O-])c(I)cc12.[Na+].[Na+] [RB, rose bengal sodium salt]
agent concentration in tumor tissues [2]: hardly observed | solubility ([3]; 1-octanol, organic solvent or mixture, saturated solution at 25° C., organic solvent, read-out: solubility in 1-octanol): < 0.1 mM | solubility ([3]; phosphate buffer solution (PBS), pH 7.4, aqueous buffer, saturated solution at 25° C., aqueous solution, read-out: solubility in PBS (pH 7.4)): 220 mM | solubility in 1-octanol ([3]; saturated solution at 25° C., organic solvent, sodium salt): <0.1 mM | occurrence/concentration in tumor tissues (fluorescence intensity ratio to internal standard) [4]: hardly observed | dissolution behaviour when preparing solution for administration in vivo [5]: soluble as it was in PBS (pH 7.4) | subharmonic generation [1]: observed | relation between light exposure time and yield in photo-oxidation of iodide [6]: almost proportional to the exposure time

CCCCCCOC(=O)c1c(Cl)c(Cl)c(Cl)c(Cl)c1-c1c2cc(I)c(=O)c(I)c-2oc2c(I)c(O)c(I)cc12 [RB—C6]
agent concentration in tumor tissues [2]: higher as compared with RB | subharmonic generation [1]: observed | relation between light exposure time and yield in photo-oxidation of iodide [6]: almost proportional to the exposure time

CCCCCCCCCCCCCCCCCCOC(=O)c1c(Cl)c(Cl)c(Cl)c(Cl)c1-c1c2cc(I)c(=O)c(I)c-2oc2c(I)c(O)c(I)cc12 [RB—C18]
agent concentration in tumor tissues [2]: higher as compared with RB | subharmonic formation ([1]; 0.1 mmol/L in PBS (pH 7.4, 1% DMF), ultrasound intensity 10 W/cm^2, 1 minute): no subharmonic formation was observed | relation between light exposure time and yield in photo-oxidation of iodide [6]: almost proportional to the exposure time

CCCCCCCCCCOC(=O)c1c(Cl)c(Cl)c(Cl)c(Cl)c1-c1c2cc(I)c(=O)c(I)c-2oc2c(I)c(O)c(I)cc12 [RB—CLO]
relation between light exposure time and yield in photo-oxidation of iodide [6]: almost proportional to the exposure time

O=C(O)CCCCCCCOC(=O)c1c(Cl)c(Cl)c(Cl)c(Cl)c1-c1c2cc(I)c(=O)c(I)c-2oc2c(I)c(O)c(I)cc12 [RB—COOH—C7, Rose bengal-α-carboxyheptyl ester]
solubility in the organic solvent relative to that of RB—C7—COOH ([3]; 1-octanol): about 5 times | solubility in 1-octanol (organic solvent) relative to the solubility of RB ([3]; 25° C.): 120 times | solubility in the aqueous solution relative to that of RB—C7 ([3]; PBS (pH 7.4), 25° C.): 83 times | solubility in PBS (pH 7.4) ([3]; saturated solution at 25° C., aqueous solution): 0.83 mmol/l | solubility in 1-octanol ([3]; saturated solution at 25° C., organic solvent): 12 mM (≈ 13.4 mg/mL) | occurrence/concentration in tumor tissues (fluorescence intensity ratio to internal standard) [4]: higher than that of RB | subharmonic generation [1]: observed | relation between light exposure time and yield in photo-oxidation of iodide [6]: almost proportional to the exposure time | time bubbles remain after shaking [7]: about 120 seconds | duration of imaging of hepatic artery and aorta [8]: about 30 seconds

CCCCCCCCCCCCCCOC(=O)c1c(Cl)c(Cl)c(Cl)c(Cl)c1-c1c2cc(I)c(=O)c(I)c-2oc2c(I)c(O)c(I)cc12 [RB—Cl4]
relation between light exposure time and yield in photo-oxidation of iodide [6]: almost proportional to the exposure time

Rose bengal-α-carboxyethyl ester [RB—COOH—C2]
occurrence/concentration in tumor tissues (fluorescence intensity ratio to internal standard) [4]: hardly observed | relation between light exposure time and yield in photo-oxidation of iodide [6]: almost proportional to the exposure time

Rose bengal-α-carboxypentadecyl ester [RB—COOH—C15]
occurrence/concentration in tumor tissues (fluorescence intensity ratio to internal standard) [4]: higher than that of RB | subharmonic generation [1]: observed | relation between light exposure time and yield in photo-oxidation of iodide [6]: almost proportional to the exposure time

erythrosine B sodium salt [EB]
subharmonic generation [1]: observed
